Where a SMILES comes first, the peptide text is derived from it.
Experiments:
SKBR-3 cells = assay: TUNEL assay; type: cell-based; conditions: 5 and 10 µM
Method: Ten thousand SKBR-3 cells were added to each well of Lab-Tek® 8-chamber slides and incubated overnight for cell attachment. […] Cells were washed twice with cold PBS. Cell fixation was achieved using 10% buffered formalin followed by permeabilization of membranes using 0.2% Triton X-100 in PBS at room temperature. 100 µL of rTdT reaction mix containing biotinylated nucleotide mix was added. The slide was placed in a humidity chamber and incubated for 60 min at 37°C. With the addition of dilute saline-sodium citrate (SSC) solution (20X provided with the kit diluted to 2X), the reaction was stopped. Three PBS washes were made to ensure the removal of remaining unincorporated biotinylated nucleotides on the slide. Treatment with 0.3% hydrogen peroxide was done to block the endogenous peroxidases in the cells. The slide was incubated for 30 min at room temperature with dilute streptavidin HRP solution (1:500 in PBS). Diaminobenzidine (DAB) was added to stain the slide. After drying, DAPI was used to counterstain the nuclei, and images were obtained using a Nikon Eclipse TS100. The number of cells that had undergone apoptosis was counted and quantified.

EGFR = target: T1, EGFR (Homo sapiens, UniProt P00533); assay: Surface plasmon resonance analysis; type: binding; conditions: data not shown
T1 construct: Extracellular domains of proteins HER2, EGFR, HER3, and HER4 purchased from Leinco Technologies; purchased Leinco Technologies (St. Louis, MO)
Method: (§1) Surface plasmon resonance analysis was performed using GE X100. Extracellular domains of proteins HER2, EGFR, HER3, and HER4 purchased from Leinco Technologies (St. Louis, MO). […] Compound 18 and controls were used as analytes. Compound 18 at different concentrations (0 to 200 µM) was passed through an SPR chip, and binding kinetics were analyzed for each of the EGFR bindings. A blank subtracted sensorgram for compound 18 was represented.

[1] = target: T2, HER2 ECD (domains I to IV) (Homo sapiens, UniProt P04626); assay: Surface plasmon resonance analysis; type: binding
T2 construct: Extracellular domains of proteins HER2, EGFR, HER3, and HER4 purchased from Leinco Technologies; purchased Leinco Technologies (St. Louis, MO)
Method: as §1

HER4 = target: T3, HER4 (Homo sapiens, UniProt Q15303); assay: Surface plasmon resonance analysis; type: binding; conditions: data not shown
T3 construct: Extracellular domains of proteins HER2, EGFR, HER3, and HER4 purchased from Leinco Technologies; purchased Leinco Technologies (St. Louis, MO)
Method: as §1

domain IV of HER2 = domain IV of HER2 (Homo sapiens, UniProt P04626); assay: Surface plasmon resonance analysis; type: binding; conditions: protein immobilized on CM5 chip
Method: as §1

HER3 = target: T4, HER3 (Homo sapiens, UniProt P21860); assay: Surface plasmon resonance analysis; type: binding; conditions: data not shown
T4 construct: Extracellular domains of proteins HER2, EGFR, HER3, and HER4 purchased from Leinco Technologies; purchased Leinco Technologies (St. Louis, MO)
Method: as §1

[2] = target: T5, HER2 protein on BT-474 cells (Homo sapiens, UniProt P04626); assay: Competitive binding assay with FITC-compound 5; conditions: 0.1 to 50 µM with 50 µM FITC-compound 5, BT-474 cells
T5 construct: incubated with HER2 expressing BT-474 cells lines along with fixed amount of FITC-compound 5; host or cells: BT-474
Method: BT-474 cell lines were coated on 96 well plates and after 24 hrs cells were washed. Varying amounts of compound 18 (0.1 to 50 µM) was incubated with HER2 expressing BT-474 cells lines along with fixed amount of FITC-compound 5 (50 µM). […] Readings were in triplicate. A graph of relative fluorescence with respect to concentration of compound 18 was plotted. As control fluorescence from FITC-compound 5 and cells without any treatment were used.

T2 sequence (P04626 23-652 limits assumed): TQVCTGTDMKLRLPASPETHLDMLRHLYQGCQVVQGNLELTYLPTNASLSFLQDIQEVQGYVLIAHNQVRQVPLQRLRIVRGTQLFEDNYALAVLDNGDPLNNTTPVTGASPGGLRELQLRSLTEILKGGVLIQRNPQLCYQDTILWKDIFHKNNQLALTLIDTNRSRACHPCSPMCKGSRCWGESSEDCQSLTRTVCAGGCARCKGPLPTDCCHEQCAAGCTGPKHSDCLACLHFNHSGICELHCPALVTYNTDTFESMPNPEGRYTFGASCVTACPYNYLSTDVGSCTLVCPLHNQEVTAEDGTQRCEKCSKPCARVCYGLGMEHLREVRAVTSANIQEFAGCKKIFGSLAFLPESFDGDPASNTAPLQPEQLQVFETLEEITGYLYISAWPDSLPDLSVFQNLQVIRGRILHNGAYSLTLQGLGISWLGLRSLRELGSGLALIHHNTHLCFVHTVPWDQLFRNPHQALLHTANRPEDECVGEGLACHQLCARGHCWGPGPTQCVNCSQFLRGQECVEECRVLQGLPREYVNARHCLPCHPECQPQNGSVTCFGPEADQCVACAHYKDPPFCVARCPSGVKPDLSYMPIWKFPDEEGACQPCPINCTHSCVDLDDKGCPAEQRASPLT
T3 sequence (Q15303 26-651 limits assumed): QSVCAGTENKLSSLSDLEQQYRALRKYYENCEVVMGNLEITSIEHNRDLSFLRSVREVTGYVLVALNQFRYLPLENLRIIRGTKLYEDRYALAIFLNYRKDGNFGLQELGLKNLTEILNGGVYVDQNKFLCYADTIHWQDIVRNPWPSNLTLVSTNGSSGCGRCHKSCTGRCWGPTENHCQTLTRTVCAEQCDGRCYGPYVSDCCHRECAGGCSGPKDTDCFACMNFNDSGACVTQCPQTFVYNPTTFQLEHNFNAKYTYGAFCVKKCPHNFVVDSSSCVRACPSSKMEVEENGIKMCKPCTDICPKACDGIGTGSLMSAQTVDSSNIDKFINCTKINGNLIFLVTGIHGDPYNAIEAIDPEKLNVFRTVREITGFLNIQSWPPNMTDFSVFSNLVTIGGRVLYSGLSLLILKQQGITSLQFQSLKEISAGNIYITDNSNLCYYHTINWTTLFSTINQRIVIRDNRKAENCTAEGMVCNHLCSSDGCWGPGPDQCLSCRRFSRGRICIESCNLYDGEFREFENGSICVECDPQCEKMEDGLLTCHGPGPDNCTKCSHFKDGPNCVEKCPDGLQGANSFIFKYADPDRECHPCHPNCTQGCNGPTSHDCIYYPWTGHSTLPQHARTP
Sequence of domain IV of HER2 (P04626 511-652 limits assumed): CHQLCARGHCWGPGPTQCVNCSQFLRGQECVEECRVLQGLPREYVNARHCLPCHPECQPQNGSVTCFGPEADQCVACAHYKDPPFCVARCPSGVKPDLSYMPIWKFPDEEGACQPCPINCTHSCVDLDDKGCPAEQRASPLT
T1 sequence (P00533 25-645 limits assumed): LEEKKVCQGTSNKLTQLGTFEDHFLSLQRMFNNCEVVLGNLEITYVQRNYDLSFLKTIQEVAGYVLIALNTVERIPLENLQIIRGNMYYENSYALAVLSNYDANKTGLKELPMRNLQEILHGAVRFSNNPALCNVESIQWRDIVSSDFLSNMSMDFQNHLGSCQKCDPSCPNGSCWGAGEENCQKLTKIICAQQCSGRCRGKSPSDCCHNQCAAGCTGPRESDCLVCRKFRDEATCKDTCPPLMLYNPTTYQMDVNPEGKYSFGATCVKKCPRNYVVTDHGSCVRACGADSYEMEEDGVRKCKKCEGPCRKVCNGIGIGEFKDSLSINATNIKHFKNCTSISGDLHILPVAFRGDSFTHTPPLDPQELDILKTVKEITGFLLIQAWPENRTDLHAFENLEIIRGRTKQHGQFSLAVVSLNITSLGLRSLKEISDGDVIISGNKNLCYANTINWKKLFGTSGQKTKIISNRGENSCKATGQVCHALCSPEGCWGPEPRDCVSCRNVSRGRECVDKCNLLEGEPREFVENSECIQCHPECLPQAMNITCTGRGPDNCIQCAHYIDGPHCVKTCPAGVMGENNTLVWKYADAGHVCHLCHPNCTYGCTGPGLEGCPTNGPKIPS
T4 sequence (P21860 20-643 limits assumed): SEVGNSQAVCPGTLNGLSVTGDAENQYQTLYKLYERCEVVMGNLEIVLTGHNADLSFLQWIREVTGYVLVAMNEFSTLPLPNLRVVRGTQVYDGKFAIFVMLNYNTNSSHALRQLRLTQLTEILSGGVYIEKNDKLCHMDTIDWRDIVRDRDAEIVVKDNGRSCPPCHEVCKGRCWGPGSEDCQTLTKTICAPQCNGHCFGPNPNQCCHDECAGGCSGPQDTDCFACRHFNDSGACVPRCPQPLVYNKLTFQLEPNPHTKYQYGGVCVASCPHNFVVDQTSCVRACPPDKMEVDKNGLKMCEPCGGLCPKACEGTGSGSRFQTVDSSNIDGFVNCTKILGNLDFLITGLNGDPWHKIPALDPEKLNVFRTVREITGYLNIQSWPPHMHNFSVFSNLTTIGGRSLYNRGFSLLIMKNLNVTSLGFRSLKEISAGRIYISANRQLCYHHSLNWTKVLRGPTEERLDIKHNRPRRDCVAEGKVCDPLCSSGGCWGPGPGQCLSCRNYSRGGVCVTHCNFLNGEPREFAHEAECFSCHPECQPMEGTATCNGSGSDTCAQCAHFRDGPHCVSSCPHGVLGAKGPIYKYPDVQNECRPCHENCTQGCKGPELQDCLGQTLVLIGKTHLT
T5 sequence (P04626 23-1255): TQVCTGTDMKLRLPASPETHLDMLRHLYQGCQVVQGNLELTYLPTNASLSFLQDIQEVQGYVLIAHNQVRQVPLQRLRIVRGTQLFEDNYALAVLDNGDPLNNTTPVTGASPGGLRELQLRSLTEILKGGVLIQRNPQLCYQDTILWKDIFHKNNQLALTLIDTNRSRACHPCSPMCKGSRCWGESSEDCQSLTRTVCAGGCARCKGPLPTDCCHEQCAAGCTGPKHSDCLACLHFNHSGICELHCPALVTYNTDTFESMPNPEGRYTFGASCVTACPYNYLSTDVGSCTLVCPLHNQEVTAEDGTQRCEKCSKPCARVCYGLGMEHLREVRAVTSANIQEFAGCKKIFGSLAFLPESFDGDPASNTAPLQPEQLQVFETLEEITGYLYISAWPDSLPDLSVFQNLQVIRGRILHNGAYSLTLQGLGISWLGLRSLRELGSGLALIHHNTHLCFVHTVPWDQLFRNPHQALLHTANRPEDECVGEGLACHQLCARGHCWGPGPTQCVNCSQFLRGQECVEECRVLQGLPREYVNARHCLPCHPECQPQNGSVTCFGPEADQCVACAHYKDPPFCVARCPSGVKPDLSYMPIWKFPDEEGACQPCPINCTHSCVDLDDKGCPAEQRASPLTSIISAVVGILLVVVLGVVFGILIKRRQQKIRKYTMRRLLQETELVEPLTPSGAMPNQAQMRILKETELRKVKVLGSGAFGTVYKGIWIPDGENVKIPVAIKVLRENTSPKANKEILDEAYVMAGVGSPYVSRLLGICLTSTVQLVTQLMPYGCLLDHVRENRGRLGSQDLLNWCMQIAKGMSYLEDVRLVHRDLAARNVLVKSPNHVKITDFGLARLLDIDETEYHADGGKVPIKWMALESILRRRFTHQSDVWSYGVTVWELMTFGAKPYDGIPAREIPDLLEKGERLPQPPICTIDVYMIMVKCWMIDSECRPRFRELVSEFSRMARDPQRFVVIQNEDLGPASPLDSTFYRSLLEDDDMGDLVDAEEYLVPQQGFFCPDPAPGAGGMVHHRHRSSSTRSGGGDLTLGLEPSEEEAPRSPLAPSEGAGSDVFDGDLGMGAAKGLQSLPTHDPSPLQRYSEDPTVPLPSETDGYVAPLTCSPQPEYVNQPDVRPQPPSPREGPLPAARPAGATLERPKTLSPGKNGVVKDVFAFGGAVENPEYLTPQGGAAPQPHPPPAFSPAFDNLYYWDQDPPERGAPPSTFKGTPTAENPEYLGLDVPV

## N=C(N)NCCC[C@@H]1NC(=O)[C@H]2CCCN2C(=O)[C@@H]2CCCN2C(=O)[C@H](CCCNC(=N)N)NC(=O)C[C@H](c2cccc3ccccc23)NC(=O)[C@H](Cc2ccccc2)NC(=O)[C@H](CC(=O)O)NC(=O)[C@H](CC(=O)O)NC(=O)[C@H](Cc2ccccc2)NC(=O)C[C@H](c2cccc3ccccc23)NC1=O [compound 18, Cyclo(1,10)P^1p^2R^3(R-Anapa)^4F^5D^6D^7F^8(R-Anapa)^9R^10] (HELM PEPTIDE1{P.[dP].R.[O=C(C[C@@H](N[*:1])c1cccc2ccccc12)[*:2]].F.D.D.F.[O=C(C[C@@H](N[*:1])c1cccc2ccccc12)[*:2]].R}$PEPTIDE1,PEPTIDE1,1:R1-10:R2$$$V2.0)
SKBR-3 cells
  Apoptosis (TUNEL staining): positive staining for apoptosis
EGFR
  SPR binding to EGFR: did not indicate any significant change in response
[1]; SPR, 1:1 binding Langmuir fit
  koff: 5.97 s⁻¹
  kon: 4.76e+07 M⁻¹ s⁻¹
[1]; calculated from kon and koff
  Kd: 125 nM
[1]; protein immobilized on CM5 chip, substance as analyte
  SPR binding to HER2 ECD: concentration-dependent binding
HER4
  SPR binding to HER4: did not indicate any significant change in response
Domain IV of HER2
  SPR binding to HER2 domain IV: concentration-dependent binding
HER3
  SPR binding to HER3: did not indicate any significant change in response
[2]
  Competition with FITC-compound 5 (cell fluorescence): decrease in the fluorescence intensity of cells

Reference: PMC5650337, “A peptidomimetic with a chiral switch is an inhibitor of epidermal growth factor receptor heterodimerization” (Oncotarget, 2017)
